Data reported in US20240206516A1, “SYSTEMS AND METHODS FOR SUGAR-REDUCTION AND/OR FIBER PRODUCTION FOR FOOD AND OTHER APPLICATIONS” (President and Fellowa of Harvard College, priority 2021, published 2024).

Tests used:
glucose oxidase = glucose oxidase (Aspergillus niger, UniProt P13006); test: Enzymatic activity of glucose oxidase in the presence of polyphenol and metal ions at different pH; assay type: biochemical
Experimental: Enzymatic activity of glucose oxidase was tested in the presence of polyphenol and metal ions from minerals at different pH. Polyphenol is known to be able to bind to enzymes and also form metal coordination with the metal ions.
The enzyme (e.g, glucose oxidase) was combined with different polyphenols (e.g., tannic acid, EGCG) and metal ions from different minerals (e.g., CaCl2, FeCl3, MgCl2, ZnCl2) in buffer solutions having two pH conditions. A buffer having a first pH condition of 3.5 was used to simulate juice buffer. A buffer having a second pH condition of 7 was used to simulate intestinal buffer. The effect of bile salt (an intrinsic compound found in the intestine) on enzymatic activity of glucose oxidase was also tested by incorporating it into the simulated pH 7 intestinal buffer. It should be noted that the enzyme in FIG. 4 is not limited to glucose oxidase, as described in this example. Any appropriate enzymes described elsewherein herein (e.g., inulosucrase, etc.) may be employed using the experimental design in FIG. 4 for sugar reduction.
The enzyme activity of glucose oxidase was measured by measuring the capability of glucose oxidase to convert glucose in different experimental conditions. […] It was hypothesized that at a pH of 7, polyphenol formed metal coordination complexes with metal ions and thus dissociated from the glucose oxidase.
A similar trend in […] was observed when a different polyphenol, EGCE, was used instead of tannic acid.

inulosucrase = target: T1, inulosucrase (Lactobacillus gasseri, UniProt D3WYV9); test: Inhibition of inulosucrase enzymatic activity by tannic acid; assay type: biochemical
T1 sequence (D3WYV9 37-761): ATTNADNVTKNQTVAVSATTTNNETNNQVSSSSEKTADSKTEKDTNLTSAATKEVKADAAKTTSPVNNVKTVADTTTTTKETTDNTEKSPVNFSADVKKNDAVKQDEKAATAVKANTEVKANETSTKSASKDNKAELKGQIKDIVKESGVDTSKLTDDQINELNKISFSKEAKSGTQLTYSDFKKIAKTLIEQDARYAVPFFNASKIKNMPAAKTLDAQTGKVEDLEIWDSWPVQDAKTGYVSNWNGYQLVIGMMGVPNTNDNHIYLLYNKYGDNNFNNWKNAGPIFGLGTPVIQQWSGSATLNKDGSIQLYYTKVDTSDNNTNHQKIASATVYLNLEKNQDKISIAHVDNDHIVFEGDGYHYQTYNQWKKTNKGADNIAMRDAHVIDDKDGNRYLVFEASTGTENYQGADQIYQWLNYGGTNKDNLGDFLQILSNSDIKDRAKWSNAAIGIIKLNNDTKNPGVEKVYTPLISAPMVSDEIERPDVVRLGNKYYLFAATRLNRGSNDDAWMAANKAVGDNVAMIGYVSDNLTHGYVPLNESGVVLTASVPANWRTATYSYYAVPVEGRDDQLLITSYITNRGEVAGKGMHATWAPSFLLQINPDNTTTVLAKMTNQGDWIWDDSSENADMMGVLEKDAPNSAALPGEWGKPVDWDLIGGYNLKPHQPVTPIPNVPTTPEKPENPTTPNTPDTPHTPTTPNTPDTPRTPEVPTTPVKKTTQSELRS
Experimental: In addition to encapsulating the inulosucrase-nanocellulose complex, an inhibitor (e.g., tannic acid) could also be encapsulated together with the complex. The amount of tannic acid necessary to inhibit enzymatic activity of inulosucrase (while attached to nanocellulose) is shown in FIG. 19. […] The effect of inulosucrase in various food products were studied. Free inulosucrase (not attached to any substrate) was added to a beverage (e.g., Capri San®) and the concentration of various saccharides was measured after 10 minutes at room temperature and 37° C. (FIG. 20A). […] Additional data for other food products (e.g., chocolates) are illustrated in FIGS. 20B-20C.
The effect of tannic acid on enzymatic activity in various food products at different pH conditions was studied. Tannic acid was combined with an enzyme (e.g., inulosucrase) at 1:1 molar ratio to form tannic acid-enzyme (TA-Enz) complex. The TA-Enz complex was prepared at various pH levels (e.g., 3.5, 5.5) and tannic acid concentrations (e.g., 10 mM, 30 mM, 50 mM). The effect of TA-Enz complex in sucrose solution and apple juice was compared to that of free enzyme (enzyme not complexed with tannic acid). Residual sucrose of sucrose solution and apple juice was first monitored in the presence of TA-Enz complexes after an incubation time of 15 minutes.
Residual sucrose of sucrose solution and apple juice was also monitored in the presence of TA-Enz complexes after an incubation time of 24 hours (FIGS. 23A-23B).

[1] = pH 3.5 (simulated juice buffer), polyphenol with Mg^+2 (from MgCl2)
[2] = pH 7 (simulated intestinal buffer), polyphenol with Mg^+2
[3] = pH 7 with bile salt (0.2 wt %), polyphenol with Mg^+2

glucose oxidase, sequence (P13006 17-605, species assumed): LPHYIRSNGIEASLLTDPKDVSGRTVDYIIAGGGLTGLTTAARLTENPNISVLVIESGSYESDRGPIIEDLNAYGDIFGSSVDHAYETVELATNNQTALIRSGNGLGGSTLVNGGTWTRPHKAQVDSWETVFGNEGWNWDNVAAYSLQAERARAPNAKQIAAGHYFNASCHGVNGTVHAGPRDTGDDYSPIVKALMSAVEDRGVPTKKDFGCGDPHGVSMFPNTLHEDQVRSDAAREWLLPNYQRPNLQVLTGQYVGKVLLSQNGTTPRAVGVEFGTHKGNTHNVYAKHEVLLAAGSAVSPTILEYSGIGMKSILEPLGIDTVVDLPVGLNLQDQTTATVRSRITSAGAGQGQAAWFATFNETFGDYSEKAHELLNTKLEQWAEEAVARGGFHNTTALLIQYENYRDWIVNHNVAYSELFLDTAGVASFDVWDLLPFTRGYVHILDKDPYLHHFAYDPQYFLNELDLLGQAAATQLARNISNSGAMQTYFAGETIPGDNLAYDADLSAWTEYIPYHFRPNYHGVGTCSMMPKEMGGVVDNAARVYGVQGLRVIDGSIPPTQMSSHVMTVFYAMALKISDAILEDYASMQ

Row | SMILES | enzymatic activity of glucose oxidase (glucose oxidase; [1]) | enzymatic activity of glucose oxidase (glucose oxidase; [2]) | enzymatic activity of glucose oxidase (glucose oxidase; [3]) | concentration at which glucose oxidase activity was significantly inhibited (glucose oxidase) | inulosucrase activity after polyphenol inhibition (inulosucrase; in the presence of bile salts) | pH-dependent inhibition and reactivation of enzymatic activity (inulosucrase; low pH ˜3.5 vs higher pH ˜6.8) | enzymatic activity of inulosucrase (attached to nanocellulose) (inulosucrase; with increase in tannic acid concentration)
1 | O=C(O[C@@H]1Cc2c(O)cc(O)cc2O[C@@H]1c1cc(O)c(O)c(O)c1)c1cc(O)c(O)c(O)c1 [EGCE, Epigallocatechin gallate] | prohibited its enzymatic activity | partially recovered | further enzymatic activity was recovered |  |  |  | 
2 | O=C(OC[C@H]1O[C@@H](OC(=O)c2cc(O)c(O)c(OC(=O)c3cc(O)c(O)c(O)c3)c2)[C@H](OC(=O)c2cc(O)c(O)c(OC(=O)c3cc(O)c(O)c(O)c3)c2)[C@@H](OC(=O)c2cc(O)c(O)c(OC(=O)c3cc(O)c(O)c(O)c3)c2)[C@@H]1OC(=O)c1cc(O)c(O)c(OC(=O)c2cc(O)c(O)c(O)c2)c1)c1cc(O)c(O)c(OC(=O)c2cc(O)c(O)c(O)c2)c1 [tannic acid] | further inhibited | partially recovered | furthered recovered | 1 µM | reactivated in the presence of bile salts | repeated inhibition of enzymatic activity at low pH (e.g., pH˜3.5) and reactivation of enzymatic activity at higher pH (e.g., pH˜6.8) | reduction in enzymatic activity
